Data taken from patent US8940893B2, “Heteroaromatic compounds as BTK inhibitors” (Boehringer Ingelheim International GmbH, priority 2013, dated 2015).

Molecular target: full-length human His-tagged BTK (Homo sapiens (Human), UniProt Q06187)
Assay: BTK HTRF assay (Cisbio KinEASE-TK)
Format: biochemical
Conditions: 6 nM BTK, 15 min preincubation at 28° C., 30 uM ATP
Description: BTK Assay An HTRF assay (Cisbio KinEASE-TK cat #62TKOPEC) was performed to quantitate the ability of test compounds to inhibit BTK mediated phosphorylation of substrate. […] Then, 1 uM of TK substrate-biotin and 30 uM ATP were added and incubated for an additional 30 minutes at 28° C. Phospohrylation was detected by adding 62.5 nM Streptavidin-XL665 and TK-Antibody Cryptate diluted 1:100 in HTRF detection buffer (Cisbio cat #62SDBRDF) and incubated for 60 minutes at RT. The plate was read on an Envision plate reader and the fluoresence is measured at 620 nm (cryptate) and 665 nm (XL665). A ratio is calculated (665/620) and converted to POC relative to control and blank wells. Assay Buffer: […]

Sequence of full-length human His-tagged BTK (Q06187 whole entry): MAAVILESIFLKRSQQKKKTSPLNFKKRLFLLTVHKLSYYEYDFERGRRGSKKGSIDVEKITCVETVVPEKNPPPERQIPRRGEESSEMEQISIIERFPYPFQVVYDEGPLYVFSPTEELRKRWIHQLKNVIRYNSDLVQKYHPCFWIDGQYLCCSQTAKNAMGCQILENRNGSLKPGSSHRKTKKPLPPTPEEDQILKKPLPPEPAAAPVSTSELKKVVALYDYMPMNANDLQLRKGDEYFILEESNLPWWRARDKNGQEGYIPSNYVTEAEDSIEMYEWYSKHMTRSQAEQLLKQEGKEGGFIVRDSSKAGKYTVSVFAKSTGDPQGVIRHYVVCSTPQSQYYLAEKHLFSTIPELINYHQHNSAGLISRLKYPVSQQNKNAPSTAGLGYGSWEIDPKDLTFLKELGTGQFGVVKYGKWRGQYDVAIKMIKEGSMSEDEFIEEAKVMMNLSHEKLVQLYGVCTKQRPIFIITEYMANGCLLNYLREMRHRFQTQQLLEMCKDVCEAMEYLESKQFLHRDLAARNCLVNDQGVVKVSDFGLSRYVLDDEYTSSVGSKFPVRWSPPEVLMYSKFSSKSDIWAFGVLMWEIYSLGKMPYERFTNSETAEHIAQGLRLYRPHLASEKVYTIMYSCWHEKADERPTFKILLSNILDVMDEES

| SMILES | IC50 |
| --- | --- |
| C=CC(=O)N1CC2(CC(n3nc(-c4ccc(Oc5ccccc5)cc4)c4c(N)ncnc43)C2)C1 [Example 1] | 1 nM |
| CN(C)C/C=C/C(=O)N1CC2(CC(n3nc(-c4ccc(Oc5ccccc5)cc4)c4c(N)ncnc43)C2)C1 [Example 2] | 1.8 nM |
| CC#CC(=O)N1CC2(CC(n3nc(-c4ccc(Oc5ccccc5)cc4)c4c(N)ncnc43)C2)C1 [Example 3] | 0.83 nM |
| Nc1ncnc2c1c(-c1ccc(Oc3ccccc3)cc1)nn2C1CC2(C1)CN(C(=O)C1CO1)C2 (stereo not shown) [Example 4] | 13 nM |
| C=CC(=O)N1CCC2(CC(n3nc(-c4ccc(Oc5ccccc5)cc4)c4c(N)ncnc43)C2)C1 (stereo not shown) [Example 5] | 0.87 nM |
| C=CC(=O)N1CC2(CC(n3nc(-c4ccc(-c5cnc(Cc6ccccc6)n(C)c5=O)cc4F)c4c(N)ncnc43)C2)C1 [Example 6] | 0.85 nM |
| CC#CC(=O)N1CC2(CC(n3nc(-c4ccc(Oc5ccccc5)nc4)c4c(N)ncnc43)C2)C1 [Example 7] | 1.1 nM |
| C=CC(=O)N1CC2(CC(n3nc(-c4ccc(Oc5ccccc5)nc4)c4c(N)ncnc43)C2)C1 [Example 8] | 2.4 nM |
| C/C=C/C(=O)N1CC2(CC(n3nc(-c4ccc(Oc5ccccc5)nc4)c4c(N)ncnc43)C2)C1 [Example 9] | 83 nM |
| CC#CC(=O)N1CC[C@]2(C1)C[C@@H](n1nc(-c3ccc(Oc4ccccc4)cn3)c3c(N)ncnc31)C2 [Example 13] | 0.74 nM |
| CN(C)C/C=C/C(=O)N1CC2(CC(n3nc(-c4ccc(Oc5ccccc5)cn4)c4c(N)ncnc43)C2)C1 [Example 15] | 32 nM |
| CN(C)C/C=C/C(=O)N1CC[C@]2(C1)C[C@@H](n1nc(-c3ccc(Oc4ccccc4)cn3)c3c(N)ncnc31)C2 [Example 16] | 8.1 nM |
| CN(C)C/C=C/C(=O)N1CC[C@]2(C1)C[C@H](n1nc(-c3ccc(Oc4ccccc4)cn3)c3c(N)ncnc31)C2 [Example 17] | 7.1 nM |
